Target mRNA inhibition data for 83 sequences are collected here from the OligoGym collection.

The data set addresses HSD17B13. The conditions noted are these: ASO, HepaRG.

After the bases stand the sugars from the 5' end (letter, count) and the backbone: PS all phosphorothioate, else s phosphorothioate and o phosphodiester by linkage. Methylation of C is not given here. e = 2'-O-(2-methoxyethyl) (MOE); k = constrained ethyl (cEt); d = 2'-deoxy (DNA); m = 2'-O-methyl

On to CCAAAGATGAGAGTCT (sugars k3 d10 k3, PS), for which, for the setting “1 µM”, the target mRNA inhibition worked out at 19%.
Regarding “CCAACCAAACTTCCAG (sugars k3 d9 k3 e1, PS)”, the target mRNA inhibition (1 µM) was 47%.
The same measure, in the same setting: the same measure for CCAACCAAACTTCCAG (sugars k3 d10 k3, PS): 70%; for CCAACCCAAGCTACCT (sugars k3 d10 k3, PS): 15%.
Consider CCAAGTAATTACTTCT (sugars k3 d10 k3, PS), for which the target mRNA inhibition (1 µM) amounted to 68%.
Take CCACACTAATGAATCA (sugars k3 d10 k3, PS): the target mRNA inhibition (1 µM) was 43%.
Take CCACATACGCATGCGC (sugars k3 d10 k3, PS): the target mRNA inhibition reads like this: (0.02 µM) 3%; (0.078 µM) 1%; (0.313 µM) 43%; (1 µM) 68%; (1.25 µM) 63%; (5 µM) 88%.
In the case of CCACGATTGTTACATC (sugars k3 d10 k3, PS), the target mRNA inhibition (1 µM) worked out at 42%.
The same measure, in the same setting: the same measure for CCACTGGATGGATTTC (sugars k3 d10 k3, PS): 68%.
For the setting “1 µM”, CCAGAATAGAGTTGCA (sugars k3 d10 k3, PS) displayed a target mRNA inhibition of 62%.
Still for that read-out and setting: with “CCAGGTTGAGATAAAG (sugars k3 d9 k3 e1, PS)” the figure was 51%; with “CCAGGTTGAGATAAAG (sugars kkdddddddddkekek, PS)”, 55%.
CCAGTACAGTTCCTTT (sugars k3 d10 k3, PS) yielded a target mRNA inhibition (0.02 µM) of 38%; a target mRNA inhibition (0.078 µM) of 37%; a target mRNA inhibition (0.313 µM) of 53%; a target mRNA inhibition (1 µM) of 66%; a target mRNA inhibition (1.25 µM) of 75%; a target mRNA inhibition (5 µM) of 89%.
Sequence CCAGTAGGTGTGTTTC (sugars k3 d10 k3, PS) came in with a target mRNA inhibition (1 µM) of 55%.
The same measure, in the same setting: the same measure for “CCAGUACAGTTCCTTT (sugars k3 d1 m1 d8 k3, PS)”: 51%; for CCATAATCTTGTGCTT (sugars k3 d10 k3, PS): 32%.
The sequence CCATAGGACATGGAGA (sugars k3 d10 k3, PS) displayed a target mRNA inhibition (0.02 µM) of 7%; a target mRNA inhibition (0.078 µM) of 12%; a target mRNA inhibition (0.313 µM) of 31%; a target mRNA inhibition (1 µM) of 68%; a target mRNA inhibition (1.25 µM) of 76%; a target mRNA inhibition (5 µM) of 90%.
Sequence CCATCATCGATGGAAG (sugars k3 d10 k3, PS) displayed a target mRNA inhibition (1 µM) of 8%.
For the sequence “CCATCTATCAGACTTC (sugars k3 d1 m1 d8 k3, PS)”, the target mRNA inhibition (1 µM) was 56%.
On to CCCCAAACATGGATGT (sugars k3 d10 k3, PS), for which the target mRNA inhibition (1 µM) turned out to be 62%.
CCCCTAAGTTATTATC (sugars k3 d10 k3, PS) returned a target mRNA inhibition (1 µM) of 33%.
CCCTAGATTCTACACT (sugars k3 d10 k3, PS) yielded a target mRNA inhibition (1 µM) of 22%.
CCGAATTATTTCTTGC (sugars k3 d10 k3, PS) had a target mRNA inhibition (1 µM) of 60%.
Regarding CCGCCCTTAAGTCATT (sugars k3 d10 k3, PS), under “1 µM”, the target mRNA inhibition came to 53%.
For the setting “1 µM”, CCGTTTTGGGCTAATG (sugars k3 d10 k3, PS) gave a target mRNA inhibition of 58%.
For the sequence “CCGTTTTGGGCTAATG (sugars kkdddddddddkekek, PS)”, the target mRNA inhibition by setting is: (0.02 µM) 0%; (0.078 µM) 4%; (0.313 µM) 36%; (1 µM) 72%; (1.25 µM) 52%; (5 µM) 78%.
In the case of CCTAAAGGAGATCTGA (sugars k3 d10 k3, PS), the target mRNA inhibition (1 µM) worked out at 48%.
Still for that read-out and setting: the same measure for CCTAGTTACAAACCAC (sugars k3 d10 k3, PS): 51%; for “CCTATATACATCCAAG (sugars kkdddddddddkekek, PS)”: 61%.
On the same count and under the same terms, the same measure for “CCTAUATACATCCAAG (sugars k3 d1 m1 d8 k3, PS)”: 39%; for “CCTCGATCCTATATAC (sugars k3 d9 k3 e1, PS)”: 11%.
CCTCGATCCTATATAC (sugars k3 d10 k3, PS) yielded a target mRNA inhibition (1 µM) of 31%.
As to CCTCTAAGTTAGCCCC (sugars k3 d10 k3, PS), the target mRNA inhibition (1 µM) is 97%.
In the case of CCTGCTGAAACTTGAT (sugars k3 d10 k3, PS), for the setting “1 µM”, the target mRNA inhibition is 19%.
Still for that read-out and setting: the same measure for CCTGTGTTAGCTTTAA (sugars k3 d10 k3, PS): 67%; for “CCTGTGTTAGCTTTAA (sugars kkdddddddddkekek, PS)”: 62%.
Sequence “CCTGUGTTAGCTTTAA (sugars k3 d1 m1 d8 k3, PS)” gave a target mRNA inhibition (1 µM) of 28%.
As to CCTTATGTTATCTCAA (sugars k3 d10 k3, PS), the target mRNA inhibition (1 µM) was 67%.
Same read-out and setting: with CCTTTAGTTAGAATAG (sugars k3 d10 k3, PS) the figure was 37%; with CCTTTGTATTTCGCTA (sugars k3 d10 k3, PS), 47%; with CCTTTTAACTACCCTC (sugars k3 d10 k3, PS), 22%.
In turn, CGAATTATTTCTTGCG (sugars k3 d10 k3, PS) had a target mRNA inhibition (1 µM) of 58%.
In the case of “CGATCCTATATACATC (sugars k3 d1 m1 d8 k3, PS)”, the target mRNA inhibition (1 µM) was found to be 28%.
Still for that read-out and setting: the same measure for “CGATCCTATATACATC (sugars k3 d9 k3 e1, PS)”: 29%; for CGATCCTATATACATC (sugars k3 d10 k3, PS): 33%.
Take CGATGTGGCCATGATT (sugars k3 d10 k3, PS): the target mRNA inhibition (1 µM) amounted to 44%.
On the same count and under the same terms, with CGATTGTTACATCACC (sugars k3 d10 k3, PS) the figure was 47%; with CGCCTAAAGGAGATCT (sugars k3 d10 k3, PS), 59%.
Still for that read-out and setting: with CGGCCTATTCTTCTGT (sugars k3 d10 k3, PS) the figure was 25%; with “CGGTCACCTTTCATAA (sugars kkdddddddddkekek, PS)”, 70%.
Still for that read-out and setting: with CGTAAAATTGTGTCTC (sugars k3 d10 k3, PS) the figure was 43%.
On to CGTAAATATTCTTGAG (sugars k3 d10 k3, PS), for which the target mRNA inhibition (1 µM) stood at 61%.
The same measure, in the same setting: with CGTAACCATGCATTAA (sugars k3 d10 k3, PS) the figure was 68%.
On the same count and under the same terms, the same measure for CGTATTTGAGATTCAC (sugars k3 d10 k3, PS): 59%.
For the setting “1 µM”, CGTCAAATAGGGCTGG (sugars k3 d10 k3, PS) showed a target mRNA inhibition of 53%.
CGTCCAAAAGTGTCCT (sugars k3 d10 k3, PS) showed a target mRNA inhibition (1 µM) of 53%.
On the same count and under the same terms, the same measure for CGTCCTAGGAAACAAA (sugars k3 d10 k3, PS): 45%; for CGTTTGACTGCTGCTA (sugars k3 d10 k3, PS): 58%.
Under “1 µM”, CTAAAATTGTCTAAAC (sugars k3 d10 k3, PS) registered a target mRNA inhibition of 35%.
On the same count and under the same terms, the same measure for “CTAAACATCTCTGGGA (sugars k3 d1 m1 d8 k3, PS)”: 32%.
In turn, CTAAACATCTCTGGGA (sugars k3 d10 k3, PS) yielded a target mRNA inhibition (1 µM) of 62%.
Still for that read-out and setting: with CTAAACCCTGGAGCAG (sugars k3 d10 k3, PS) the figure was 42%.
On the same count and under the same terms, the same measure for CTAAAGGAGATCTGAG (sugars k3 d10 k3, PS): 47%.
On to CTAAATTACTCCGTTC (sugars k3 d10 k3, PS), for which the target mRNA inhibition (1 µM) is 20%.
CTAAATTATTGCCTGA (sugars k3 d10 k3, PS): the target mRNA inhibition (1 µM) was found to be 39%.
Still for that read-out and setting: with CTAACCTGACACATAT (sugars k3 d10 k3, PS) the figure was 18%.
As for CTAAGTTATTATCCCC (sugars k3 d10 k3, PS), the target mRNA inhibition (0.02 µM) came out at 16%; the target mRNA inhibition (0.078 µM) amounted to 22%; the target mRNA inhibition (0.313 µM) was 48%; the target mRNA inhibition (1 µM) amounted to 70%; the target mRNA inhibition (1.25 µM) was 72%; the target mRNA inhibition (5 µM) amounted to 95%.
Under “1 µM”, CTAATATTGAGGCACT (sugars k3 d10 k3, PS) gave a target mRNA inhibition of 51%.
Where the note is “1 µM”, CTAATCTCAGTACTCC (sugars k3 d10 k3, PS) returned a target mRNA inhibition of 53%.
On the same count and under the same terms, the same measure for CTACAAAACTGGTATC (sugars k3 d10 k3, PS): 0%; for “CTACACTAATATTGAG (sugars kkdddddddddkekek, PS)”: 5%.
Still for that read-out and setting: the same measure for CTACAGATTGGAATGC (sugars k3 d10 k3, PS): 52%.
On the same count and under the same terms, the same measure for CTACATGACCTGGGTC (sugars k3 d10 k3, PS): 59%.
The sequence CTACATGGATCCAACA (sugars k3 d10 k3, PS) returned a target mRNA inhibition (1 µM) of 5%.
The same measure, in the same setting: the same measure for CTACTTCACTATATTG (sugars k3 d10 k3, PS): 33%.
Turning to “CTACUTGAACAGTCTT (sugars k3 d1 m1 d8 k3, PS)”, the target mRNA inhibition came to 9% (0.02 µM); 22% (0.078 µM); 46% (0.313 µM); 79% (1 µM); 77% (1.25 µM); 76% (5 µM).
CTAGGATTAATCATGG (sugars k3 d10 k3, PS) yielded a target mRNA inhibition (1 µM) of 65%.
The same measure, in the same setting: the same measure for CTAGGGAAATCTTTCA (sugars k3 d10 k3, PS): 48%.
The same measure, in the same setting: with CTAGTGGTAATGGTAA (sugars k3 d10 k3, PS) the figure was 62%.
“CTATAGTAATCACAAG (sugars k3 d1 m1 d8 k3, PS)”: where the note is “1 µM”, the target mRNA inhibition was 37%.
Consider CTCAAAGTCAGTATCC (sugars k3 d10 k3, PS), for which the target mRNA inhibition (1 µM) was 70%.
On the same count and under the same terms, the same measure for CTCAACAGAGAATTGT (sugars k3 d10 k3, PS): 29%; for “CTCAGGCTGTAAGAGT (sugars kkdddddddddkekek, PS)”: 10%.
